# Patent US8686050B2, “Diglycidic ether derivative therapeutics and methods for their use” (British Columbia Cancer Agency Branch, priority 2008, dated 2014)
# “Also recorded” adds a separate entry of the source. Counter-ions that a name gives are not always drawn.
# Assays:
# [1] = molecular target: T1, Gal4 DBD-AR1-558 (AR NTD) (Homo sapiens, UniProt P10275); test: Transactivation of the AR NTD (Gal4 DBD-AR1-558 with 5xGal4UAS-luciferase) in LNCaP cells; type: cell-based; conditions: LNCaP cells, 185-9-2 5 ug/ml=12 μM, bicalutamide 10 μM
# T1 construct: cloning amino acids 1-558 of the human AR NTD into the C-terminus of Gal4 DBD; expressed in transfected cells; host or cells: LNCaP
# T1 sequence (P10275 1-558): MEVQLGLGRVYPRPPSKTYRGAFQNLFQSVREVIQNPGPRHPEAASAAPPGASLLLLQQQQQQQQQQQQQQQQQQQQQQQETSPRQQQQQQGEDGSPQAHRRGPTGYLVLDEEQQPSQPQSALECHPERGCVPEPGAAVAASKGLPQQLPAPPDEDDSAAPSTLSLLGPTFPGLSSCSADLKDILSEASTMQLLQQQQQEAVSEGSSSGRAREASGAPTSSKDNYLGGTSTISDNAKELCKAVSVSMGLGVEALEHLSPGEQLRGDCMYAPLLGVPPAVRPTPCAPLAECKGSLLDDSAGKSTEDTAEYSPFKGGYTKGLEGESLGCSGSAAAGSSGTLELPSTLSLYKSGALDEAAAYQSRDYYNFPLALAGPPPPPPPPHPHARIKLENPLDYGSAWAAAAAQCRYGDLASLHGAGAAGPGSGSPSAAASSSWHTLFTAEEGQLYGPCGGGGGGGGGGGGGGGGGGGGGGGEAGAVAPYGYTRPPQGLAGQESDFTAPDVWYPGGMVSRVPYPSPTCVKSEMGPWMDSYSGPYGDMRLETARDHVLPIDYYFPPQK
# Excerpt: These fractions were next tested for their ability to inhibit the AR NTD. […] Extracts identified above were screened by such assays as well as some compounds purchased from commercial suppliers.
# Expression vectors for these chimeric proteins were cotransfected into LNCaP cells with a reporter gene containing the Gal4-binding site as cis-acting elements (p5×Gal4UAS-TATA-luciferase).
# [2] = molecular target: T2, AR interaction with the ARE on the PSA enhancer (Homo sapiens, UniProt P10275, T878A); test: ChIP of AR on the PSA enhancer ARE in LNCaP cells; type: cell-based; conditions: DHT 3 h or 16 h, 185-9-2 10 μg/ml
# T2 construct: LNCaP cells express endogenous AR and secrete prostate-specific antigen (PSA); endogenous in cells; host or cells: LNCaP
# T2 sequence (P10275 1-920 T878A): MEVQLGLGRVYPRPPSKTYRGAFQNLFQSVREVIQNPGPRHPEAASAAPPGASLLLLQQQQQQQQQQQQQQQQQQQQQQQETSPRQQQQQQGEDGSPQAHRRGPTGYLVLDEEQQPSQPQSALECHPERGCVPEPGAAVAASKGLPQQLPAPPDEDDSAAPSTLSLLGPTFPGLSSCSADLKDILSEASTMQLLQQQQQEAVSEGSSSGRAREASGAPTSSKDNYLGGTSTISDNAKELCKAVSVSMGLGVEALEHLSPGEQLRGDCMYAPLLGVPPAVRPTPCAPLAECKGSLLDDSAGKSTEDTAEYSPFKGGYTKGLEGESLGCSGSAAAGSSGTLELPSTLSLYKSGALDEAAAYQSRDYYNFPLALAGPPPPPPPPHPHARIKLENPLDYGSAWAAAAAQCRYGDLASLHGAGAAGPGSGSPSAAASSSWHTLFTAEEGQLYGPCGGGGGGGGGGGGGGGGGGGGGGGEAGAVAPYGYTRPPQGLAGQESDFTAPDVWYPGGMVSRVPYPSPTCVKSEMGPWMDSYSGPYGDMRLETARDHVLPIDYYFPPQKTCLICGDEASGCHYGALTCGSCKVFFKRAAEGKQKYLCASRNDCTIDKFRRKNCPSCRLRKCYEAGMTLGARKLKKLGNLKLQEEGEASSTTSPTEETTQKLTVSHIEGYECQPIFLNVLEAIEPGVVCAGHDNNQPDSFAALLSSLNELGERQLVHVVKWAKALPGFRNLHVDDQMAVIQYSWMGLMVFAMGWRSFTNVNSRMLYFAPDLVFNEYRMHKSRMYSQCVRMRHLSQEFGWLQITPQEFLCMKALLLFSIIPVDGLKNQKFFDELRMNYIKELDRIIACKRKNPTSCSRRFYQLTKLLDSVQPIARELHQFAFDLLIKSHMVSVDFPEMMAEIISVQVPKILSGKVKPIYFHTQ
# LNCaP cells = test: Androgen-dependent proliferation of LNCaP cells (BrdU incorporation); type: cell-based, human; conditions: R1881 0.1 nM, 4 days; 185-9-2 5 μg/ml, bicalutamide 10 μM
# Method: The prostate gland is an androgen-dependent organ where androgens are the predominant mitogenic stimulus (Isaacs J T, Scott W W, Coffey D S., Prog Clin Biol Res. 1979; 33:133-44). This dependency on androgens provides the underlying rationale for treating prostate cancer with chemical or surgical castration. […] BrdU incorporation was measured 4 days later to indicate changes in proliferation in response to androgen (FIG. 12). […] Cancer Inst. Monogr. 49, 17-21).
# LNCaP xenografts = test: LNCaP subcutaneous xenografts in castrated mice; type: in vivo, NOD-SCID male mice
# Method: (§1) Six to eight-week old male athymic SCID mice were inoculated subcutaneously in the flank region via a 27-gauge needle with a 150 μl suspension of LNCaP or PC3 human prostate cancer cells (1×10^6 cells). The inoculations took place while the animal was under isofluorane anaesthesia. The tumor take rate is approximately 75%. Mice bearing tumors of 100 mm^3 were randomly assigned to treatment groups. Castration was performed as described below. Tumor volume (formula: L×W×H×0.5236) was measured in mice bearing LNCaP subcutaneous tumors that became palpable or visible and at least 40 mm^3. The animals were monitored daily and tumors were measured every 5 days.
# PC3 xenografts = test: PC3 subcutaneous xenografts in non-castrated mice; type: in vivo, NOD-SCID male mice; conditions: 20 mg/kg body weight every 5 days, listed as PNG01-185-017-9-2, 20 mg/kg
# Method: as §1
# AR = molecular target: T3, AR (Homo sapiens, UniProt P10275, T878A); test: Nuclear translocation of AR in LNCaP cells (fractionation, fluorescence microscopy); type: cell-based; set-up: LNCaP cells express endogenous AR and secrete prostate-specific antigen (PSA); endogenous in cells; host or cells: LNCaP
# T3 sequence (P10275 1-920 T878A): T2 sequence (P10275 1-920 T878A)
smiles,measurement,setting,value
"CC(C)(c1ccc(OCC(O)CO)cc1)c1ccc(OCC(O)CCl)cc1 (stereo not shown) [185-9-2, BADGE.HCL.H2O]",FSK-induced transactivation of the AR NTD,[1]; FSK 50 μM,to baseline levels; also recorded: blocked
same,IL-6-induced transactivation of the AR NTD,[1]; IL-6 50 ng/ml,to baseline levels; also recorded: blocked
same,AR interaction with the ARE on the PSA enhancer in response to androgen (ChIP),[2],inhibited AR interaction with the ARE
same,androgen-dependent proliferation of LNCaP cells (BrdU incorporation),LNCaP cells,blocked androgen-dependent proliferation; also recorded: as effective as bicalutamide
same,"size of LNCaP xenograft tumors, intratumoral injection","LNCaP xenografts; castrated mice, I.T. every 5 days, 20 mg/kg body weight, 20 mg/kg",reduced the size of the tumors; also recorded: significantly reduce the tumors
same,"size of LNCaP xenograft tumors, intravenous injection","LNCaP xenografts; castrated mice, I.V. 50 mg/kg body weight every other day",reduced the size of the tumors
same,"LNCaP tumor volume at the duration (end) of the experiment, intratumoral","LNCaP xenografts; castrated mice, i.t. every 5 days, five doses",35.4±15.7 mm^3
same,LNCaP tumor volume within 2 weeks of i.v. injection,"LNCaP xenografts; castrated mice, i.v. 50 mg/kg every other day",64.3±29.6 mm^3
same,apoptosis in xenografts (TUNEL),"LNCaP xenografts; intravenous delivery, IHC",increased apoptosis
same,proliferation in xenografts (Ki67),"LNCaP xenografts; intravenous delivery, IHC",reduced proliferation
same,PC3 xenograft tumor growth,PC3 xenografts,had a small effect on PC3 tumor growth but did not reduce tumor burden; also recorded: did not reduce tumors but did slightly slow the growth
same,nuclear translocation of the AR in the absence of androgen,AR; compound on its own,did not cause nuclear translocation of the AR
same,nuclear translocation of AR protein in response to androgen,"AR; pretreated 1 hr, 10 nM DHT",nor did it prevent nuclear translocation of AR protein
